Measured values as given in PubChem BioAssay AID1671204.

Molecular target: Tyrosine-protein kinase ABL1 (Homo sapiens) (UniProt P00519)
Experiment: inhibition of ABL1 tyrosine kinase activity – biochemical, Z'-LYTE FRET, direct format, recombinant human, dose response (AID 1671204)
Conditions: Z'-LYTE FRET kinase assay

Sequence of Tyrosine-protein kinase ABL1 (Homo sapiens) (P00519 whole entry, looked up): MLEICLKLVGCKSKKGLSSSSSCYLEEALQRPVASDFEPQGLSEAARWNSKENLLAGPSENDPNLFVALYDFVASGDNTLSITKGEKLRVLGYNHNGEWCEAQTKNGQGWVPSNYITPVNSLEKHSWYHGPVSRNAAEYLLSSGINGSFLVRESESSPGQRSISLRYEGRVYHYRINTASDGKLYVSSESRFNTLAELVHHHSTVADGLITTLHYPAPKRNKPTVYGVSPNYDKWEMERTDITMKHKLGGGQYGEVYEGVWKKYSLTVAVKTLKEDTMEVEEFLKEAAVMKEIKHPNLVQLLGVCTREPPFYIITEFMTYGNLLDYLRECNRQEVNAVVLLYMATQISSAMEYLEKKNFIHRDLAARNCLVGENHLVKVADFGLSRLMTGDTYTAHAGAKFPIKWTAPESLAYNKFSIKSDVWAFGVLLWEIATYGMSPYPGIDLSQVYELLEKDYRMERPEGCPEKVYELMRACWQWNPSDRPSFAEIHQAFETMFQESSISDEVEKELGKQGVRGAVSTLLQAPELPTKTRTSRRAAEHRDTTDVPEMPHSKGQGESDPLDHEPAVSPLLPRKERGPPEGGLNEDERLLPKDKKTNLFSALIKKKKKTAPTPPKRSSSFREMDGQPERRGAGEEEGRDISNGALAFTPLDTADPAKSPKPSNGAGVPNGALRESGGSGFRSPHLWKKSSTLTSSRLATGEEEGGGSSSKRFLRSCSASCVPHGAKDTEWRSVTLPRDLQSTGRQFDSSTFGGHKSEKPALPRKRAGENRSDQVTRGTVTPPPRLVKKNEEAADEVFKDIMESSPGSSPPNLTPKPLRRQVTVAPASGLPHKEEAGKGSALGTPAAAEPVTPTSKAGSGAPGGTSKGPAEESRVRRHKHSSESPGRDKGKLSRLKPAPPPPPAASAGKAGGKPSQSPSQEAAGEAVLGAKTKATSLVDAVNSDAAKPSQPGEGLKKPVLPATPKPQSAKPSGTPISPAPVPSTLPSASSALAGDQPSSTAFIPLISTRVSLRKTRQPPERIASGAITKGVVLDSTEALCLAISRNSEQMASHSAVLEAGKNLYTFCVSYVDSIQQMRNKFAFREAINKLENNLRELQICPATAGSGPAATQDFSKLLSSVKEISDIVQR

Compound: COc1cc2ncnc(Nc3cccc(Cl)c3)c2cc1OC
- IC50: 434 nM
